Reference: the supplement of paper PMC10307832

What was measured:
Assay in all cases: relative viability (nuclei count vs DMSO), 5 days (fraction); higher = more cells survive
[1] = compound: C1CC(C1)(C(=O)O)C(=O)O.[NH2-].[NH2-].[Pt+2] [Carboplatin] + O=C(c1cc(Cc2n[nH]c(=O)c3ccccc23)ccc1F)N1CCN(C(=O)C2CC2)CC1 [Olaparib] (partner 8 µM)
Method in brief: (§1)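 One day after seeding in 1536-well plates, lung cancer cell lines were dosed by pin tool. Dosing was either single-drug or a fixed anchor-drug dose plus five library-drug doses (not always all listed) in √10 steps. After 5 days, nuclei were stained in one fix-and-stain step and counted on 4× images, and relative viability is the nuclei count of treated wells over that of vehicle wells, given as the median of duplicate plates.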

[2] = compound: CC[C@H](C)N1C=C(C2=C(C=C(C=C21)C3=CN=C(C=C3)N4CCNCC4)C(=O)NCC5=C(C=C(NC5=O)C)C)C [GSK126] + COc1cc2c(Oc3ccc(NC(=O)C4(C(=O)Nc5ccc(F)cc5)CC4)cc3F)ccnc2cc1OCCCN1CCOCC1 [Foretinib] (partner 0.25 µM)
Method in brief: as §1

[3] = compound: NS(=O)(=O)OC[C@@H]1C[C@@H](n2ccc3c(N[C@H]4CCc5ccccc54)ncnc32)C[C@@H]1O [MLN4924] + Nc1ncn([C@H]2C[C@H](O)[C@@H](CO)O2)c(=O)n1 [Decitabine] (partner 2 µM)
Method in brief: as §1

[4] = compound: CC[C@H](C)N1C=C(C2=C(C=C(C=C21)C3=CN=C(C=C3)N4CCNCC4)C(=O)NCC5=C(C=C(NC5=O)C)C)C [GSK126] + CC(=O)c1c(C)c2cnc(Nc3ccc(N4CCNCC4)cn3)nc2n(C2CCCC2)c1=O [Palbociclib] (partner 0.5 µM)
Method in brief: as §1

Cell Line	relative viability ([1]; first compound 0.08 µM)	relative viability ([1]; first compound 0.253 µM)	relative viability ([1]; first compound 0.8 µM)	relative viability ([1]; first compound 2.53 µM)	relative viability ([1]; first compound 8 µM)	relative viability ([2]; first compound 0.08 µM)	relative viability ([2]; first compound 0.253 µM)	relative viability ([2]; first compound 0.8 µM)	relative viability ([2]; first compound 2.53 µM)	relative viability ([2]; first compound 8 µM)	relative viability ([3]; first compound 0.04 µM)	relative viability ([3]; first compound 0.1265 µM)	relative viability ([3]; first compound 0.4 µM)	relative viability ([3]; first compound 1.265 µM)	relative viability ([3]; first compound 4 µM)	relative viability ([4]; first compound 0.08 µM)	relative viability ([4]; first compound 0.253 µM)	relative viability ([4]; first compound 0.8 µM)	relative viability ([4]; first compound 2.53 µM)	relative viability ([4]; first compound 8 µM)
LU99A	0.296	0.272	0.253	0.236	0.214	0.826	0.838	0.74	0.746	0.694	0.595	0.298	0.341	0.176	0.14	0.444	0.439	0.379	0.39	0.451
LXF-289	1.05	1.1	1.08	1.05	0.996	0.962	1.01	0.952	0.973	1.02	0.346	0.323	0.28	0.183	0.133	0.586	0.625	0.588	0.602	0.629
NCI-H23	0.4	0.31	0.281	0.28	0.24	1	0.313	0.901	1.03	0.98	0.344	0.329	0.276	0.249	0.21	0.6	0.583	0.565	0.628	0.515
NCI-H322M	0.761	0.818	0.779	0.686	0.65	0.942	1.03	0.958	1.13	0.972	0.707	0.65	0.62	0.469	0.491	0.568	0.488	0.505	0.485	0.45
NCI-H358	0.713	0.636	0.593	0.498	0.43	0.742	0.629	0.66	0.859	0.786	0.2	0.206	0.183	0.111	0.148	0.13	0.131	0.12	0.146	0.136
NCI-H441	0.465	0.497	0.499	0.486	0.259	0.889	0.866	0.975	0.926	0.715	0.253	0.241	0.22	0.158	0.175	0.193	0.232	0.21	0.243	0.257
NCI-H460	0.444	0.47	0.253	0.188	0.187	1.04	0.998	0.977	0.997	1.06	0.524	0.462	0.325	0.0402	0.0249	0.171	0.199	0.154	0.148	0.173
NCI-H520	0.408	0.253	0.328	0.313	0.287	1.04	0.693	0.719	0.78	0.909	0.447	0.338	0.249	0.148	0.207	0.21	0.233	0.221	0.209	0.268
NCI-H647	0.631	0.543	0.53	0.431	0.222	1.21	1.23	0.971	1.45	1.26	0.363	0.221	0.142	0.0732	0.0787	0.482	0.366	0.363	0.382	0.5
NCI-H650	0.419	0.388	0.37	0.365	0.285	1.15	1.02	0.954	1.02	1.03	0.272	0.253	0.201	0.167	0.165	0.349	0.315	0.331	0.322	0.352
NCI-H661	0.73	0.794	0.675	0.737	0.729	1.09	1.05	0.997	1.04	1.09	0.587	0.539	0.422	0.281	0.331	0.43	0.419	0.414	0.43	0.431
NCI-H727	0.75	0.586	0.862	0.646	0.667	1.09	0.981	0.888	1.01	0.744	0.783	0.823	0.546	0.493	0.502	0.681	0.641	0.67	0.75	0.659
NCI-H838	0.773	0.746	0.757	0.683	0.575	1.1	1.07	0.929	0.992	0.954	0.351	0.257	0.224	0.176	0.186	0.264	0.223	0.202	0.212	0.234
NCI-H1355	0.808	0.734	0.677	0.694	0.595	1.05	1.05	0.964	1.09	0.979	0.367	0.307	0.321	0.215	0.184	0.446	0.365	0.417	0.405	0.413
NCI-H1395	0.509	0.467	0.505	0.41	0.46	1.17	0.878	1.04	1.07	0.785	0.704	0.596	0.461	0.359	0.346	0.656	0.568	0.597	0.681	0.505
NCI-H1437	0.646	0.675	0.578	0.623	0.594	1.32	1.29	1.14	1.26	1.27	0.529	0.435	0.438	0.254	0.249	0.313	0.278	0.293	0.279	0.316
NCI-H1650	0.85	0.815	0.752	0.492	0.471	1.45	1	0.934	1.12	1.09	0.371	0.388	0.252	0.175	0.193	0.393	0.359	0.37	0.377	0.32
NCI-H1651	0.191	0.199	0.185	0.166	0.161	0.736	0.848	0.868	0.702	0.977	0.578	0.586	0.46	0.216	0.146	0.493	0.512	0.515	0.537	0.514
NCI-H1666	0.741	0.704	0.707	0.672	0.657	0.997	0.925	0.918	0.921	0.917	0.699	0.622	0.417	0.393	0.389	0.642	0.613	0.6	0.636	0.692
NCI-H1734	0.598	0.623	0.522	0.574	0.423	0.931	0.868	0.771	0.817	0.904	0.514	0.472	0.197	0.141	0.135	0.384	0.348	0.342	0.375	0.333
NCI-H1755	0.861	0.895	0.88	0.854	0.784	1.02	0.975	0.962	0.924	0.968	0.644	0.545	0.526	0.378	0.245	0.465	0.394	0.458	0.43	0.445
NCI-H1793	0.802	0.909	0.82	0.675	1.04	0.799	0.519	0.581	0.776	0.885	0.49	0.463	0.482	0.318	0.195	0.351	0.318	0.299	0.351	0.273
NCI-H1915	0.253	0.257	0.225	0.22	0.21	1.22	1.16	1.09	1.08	1.2	0.271	0.262	0.235	0.202	0.142	0.554	0.496	0.516	0.56	0.583
NCI-H1944	0.388	0.469	0.369	0.367	0.366	0.918	0.837	0.854	0.872	0.956	0.454	0.324	0.334	0.17	0.146	0.407	0.334	0.332	0.36	0.352
NCI-H1975	0.961	0.79	0.735	0.747	0.747	0.952	0.828	0.886	0.873	0.932	0.413	0.429	0.309	0.237	0.201	0.633	0.591	0.636	0.561	0.627
NCI-H1993	0.854	1.22	0.993	0.923	0.706	0.704	0.812	0.726	0.845	0.859	0.666	0.523	0.451	0.424	0.422	0.751	0.605	0.606	0.797	0.632
